Literature values, collected in patent US5945412A, “Methods and compositions for preventing and treating bone loss” (Merck & Co., Inc., priority 1997, dated 1999).

Test system: human type 2 enzyme (5α-reductase)
Settings: background statement

inhibition of the human type 2 enzyme (in words): potent inhibitor
SMILES: CC(C)(C)NC(=O)[C@H]1CC[C@H]2[C@@H]3CC[C@H]4NC(=O)C=C[C@]4(C)[C@H]3CC[C@]12C [Finasteride, 17β-(N-tert-butylcarbamoyl)-3-oxo-4-aza-5α-androst-1-en-3-one]
